Measurements published in the supplement of paper PMC11208160.

Experiment: recombinant UMI read abundance after kanamycin selection (control-corrected) (log10(CPM+1)); higher = more efficient recombination; extreme values may be limits of the assay; sequences stand for … in AGTGCAGAGAAAATCGGCCAGTTTTCTCTGCCTGCAGTCCGCATGCCGTGGGACCCCTTGGGTTCTAACCTGTTGCCTAGATTTATGCAGCGGACTGCCTTTCTCCCAAAGTGATAAACCGG…AGGTTGGTTTCACT; site = the 11-nt donor
Summary of the method: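 Two replicates each of selected and unselected plating were used in this pooled Escherichia coli screen of donor and donor-binding-loop pairs for the IS621 bridge recombinase. Selection was with IPTG (0.07 mM) and kanamycin. Counts of recombinant UMIs, amplified across the donor–target junction, were converted to CPM, averaged, scaled by control-derived factors and reported as log10(CPM+1).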
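Also: IS621 bridge recombinase in Escherichia coli cells against a fixed T5 target plasmid.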

Sequence	recombinant UMI read abundance (log10)
CGGTGTCCATGGACCGGTTTTCCCGGTAATCCGTATTTGTT (site CGGAATCCTAA)	0.0121
CGGTGTCCATGGACCGGTTTTCCCGGTAATCCGTATTTGTT (site CGGTGTCCTAA)	0.0166
CGGTTAGCATGGACCGGTTTTCCCGGTAATCCGTATTTGTG (site CAGTTAGCTCA)	0.694
CGGTTAGCATGGACCGGTTTTCCCGGTAATCCGTATTTGTG (site CCGTTAGCTCA)	0
CGGTTAGCATGGACCGGTTTTCCCGGTAATCCGTATTTGTG (site CGGTTAGCTCA)	1.7
CGGTTAGCATGGACCGGTTTTCCCGGTAATCCGTATTTGTG (site CTGTTAGCTCA)	0.256
CGTACAACATGGACCGGTTTTCCCGGTAATCCGTATTTGGT (site CGTACAACTAC)	1.09
CGTAGCGCATGGACCGGTTTTCCCGGTAATCCGTATTTGTT (site CGTAGCGCTAA)	1.05
CGTCAGACATGGACCGGTTTTCCCGGTAATCCGTATTTGAG (site CGTAAGACTCT)	0.182
CGTCAGACATGGACCGGTTTTCCCGGTAATCCGTATTTGAG (site CGTCAGACTCT)	1.16
CGTCAGACATGGACCGGTTTTCCCGGTAATCCGTATTTGAG (site CGTGAGACTCT)	0.016
CGTCAGACATGGACCGGTTTTCCCGGTAATCCGTATTTGAG (site CGTTAGACTCT)	0.0174
CGTCGACCATGGACCGGTTTTCCCGGTAATCCGTATTTGAT (site CGTCGACCTAT)	0.0862
CGTCGTACATGGACCGGTTTTCCCGGTAATCCGTATTTGCT (site CGACGTACTAG)	0.689
CGTCGTACATGGACCGGTTTTCCCGGTAATCCGTATTTGCT (site CGCCGTACTAG)	1.22
CGTCGTACATGGACCGGTTTTCCCGGTAATCCGTATTTGCT (site CGGCGTACTAG)	0.794
CGTCGTACATGGACCGGTTTTCCCGGTAATCCGTATTTGCT (site CGTCGTACTAG)	1.76
CGTCTCCCATGGACCGGTTTTCCCGGTAATCCGTATTTGAG (site CGTCTCCCTCT)	0.0129
CGTGAACCATGGACCGGTTTTCCCGGTAATCCGTATTTGAT (site CGAGAACCTAT)	0.0201

Sequence	recombinant UMI read abundance (log10)
CGTGAACCATGGACCGGTTTTCCCGGTAATCCGTATTTGAT (site CGCGAACCTAT)	0
CGTGAACCATGGACCGGTTTTCCCGGTAATCCGTATTTGAT (site CGGGAACCTAT)	0
CGTGAACCATGGACCGGTTTTCCCGGTAATCCGTATTTGAT (site CGTGAACCTAT)	0.0133
CGTGACTCATGGACCGGTTTTCCCGGTAATCCGTATTTGCG (site CGTGACTCTCG)	2.74
CGTGACTCATGGACCGGTTTTCCCGGTAATCCGTATTTGTA (site CGTGACTCTTA)	3.02
CGTGAGTCATGGACCGGTTTTCCCGGTAATCCGTATTTGCC (site CGAGAGTCTGG)	1.79
CGTGAGTCATGGACCGGTTTTCCCGGTAATCCGTATTTGCC (site CGCGAGTCTGG)	0
CGTGAGTCATGGACCGGTTTTCCCGGTAATCCGTATTTGCC (site CGGGAGTCTGG)	0.694
CGTGAGTCATGGACCGGTTTTCCCGGTAATCCGTATTTGCC (site CGTGAGTCTGG)	1.97
CGTGAGTCATGGACCGGTTTTCCCGGTAATCCGTATTTGCG (site CGTGAGTCTCG)	2.58
CGTGCGGCATGGACCGGTTTTCCCGGTAATCCGTATTTGGA (site CGTGCGGCTTC)	0.167
CGTGCGTCATGGACCGGTTTTCCCGGTAATCCGTATTTGTA (site CGTGCGTCTTA)	2.34
CGTGGAACATGGACCGGTTTTCCCGGTAATCCGTATTTGGT (site CGTGGAACTAA)	0.427
CGTGGAACATGGACCGGTTTTCCCGGTAATCCGTATTTGGT (site CGTGGAACTAC)	1.33
CGTGGAACATGGACCGGTTTTCCCGGTAATCCGTATTTGGT (site CGTGGAACTAG)	0
CGTGGAACATGGACCGGTTTTCCCGGTAATCCGTATTTGGT (site CGTGGAACTAT)	1.26
CGTGGCACATGGACCGGTTTTCCCGGTAATCCGTATTTGTT (site CGTGGAACTAA)	0.00865
CGTGGCACATGGACCGGTTTTCCCGGTAATCCGTATTTGTT (site CGTGGCACTAA)	0.862
CGTGGCACATGGACCGGTTTTCCCGGTAATCCGTATTTGTT (site CGTGGGACTAA)	0.00775

Sequence	recombinant UMI read abundance (log10)
CGTGGCACATGGACCGGTTTTCCCGGTAATCCGTATTTGTT (site CGTGGTACTAA)	0.0209
CGTGTAACATGGACCGGTTTTCCCGGTAATCCGTATTTGTT (site CGTGAAACTAA)	0.00395
CGTGTAACATGGACCGGTTTTCCCGGTAATCCGTATTTGTT (site CGTGCAACTAA)	0.015
CGTGTAACATGGACCGGTTTTCCCGGTAATCCGTATTTGTT (site CGTGGAACTAA)	0.0109
CGTGTAACATGGACCGGTTTTCCCGGTAATCCGTATTTGTT (site CGTGTAACTAA)	0.811
CGTTAAGCATGGACCGGTTTTCCCGGTAATCCGTATTTGGC (site CGTTAAGCTGC)	1.73
CGTTACCCATGGACCGGTTTTCCCGGTAATCCGTATTTGCG (site CGTTACCCTCG)	0.477
CGTTAGACATGGACCGGTTTTCCCGGTAATCCGTATTTGAT (site CGTTAGACTAT)	1.58
CGTTAGACATGGACCGGTTTTCCCGGTAATCCGTATTTGAT (site CGTTAGACTCT)	0.00897
CGTTAGACATGGACCGGTTTTCCCGGTAATCCGTATTTGAT (site CGTTAGACTGT)	0
CGTTAGACATGGACCGGTTTTCCCGGTAATCCGTATTTGAT (site CGTTAGACTTT)	0.0167
CGTTATCCATGGACCGGTTTTCCCGGTAATCCGTATTTGCG (site CGTTATCCTCG)	0.766
CGTTCCACATGGACCGGTTTTCCCGGTAATCCGTATTTGTG (site CGTTCCACTCA)	0.0103
CGTTGACCATGGACCGGTTTTCCCGGTAATCCGTATTTGGA (site CGTTGACCTTC)	0.0127
CGTTGATCATGGACCGGTTTTCCCGGTAATCCGTATTTGCT (site CGATCATCTAG)	0.00695
CGTTGATCATGGACCGGTTTTCCCGGTAATCCGTATTTGCT (site CGTTGATCTAG)	2.78
CGTTGGTCATGGACCGGTTTTCCCGGTAATCCGTATTTGCA (site CGTTGGTCTTG)	1.29
CGTTTCGCATGGACCGGTTTTCCCGGTAATCCGTATTTGGA (site CGTTTCGCTTC)	0.0198
CGTTTGGCATGGACCGGTTTTCCCGGTAATCCGTATTTGGT (site CGTTTGGCTAA)	0.0435
